What was measured:
[1] = test system: partially purified human histone deacetylase; assay: Activity of partially purified human histone deacetylase ([3H]acetyl histone assay); assay type: biochemical; settings: for Effect on histone deacetylase activity (in words): summary of Table 5
Experimental: Effect on Activity of Partially Purified Human Histone Deacetylase
The partial purification of human histone deacetylase, the preparation of [^3H] acetyl histones, and the assay for histone deacetylase activity were basically performed according to the method as proposed by Yoshida et al. as follows.
Partial Purification of Human Histone Deacetylase—The human histone deacetylase was partially purified from human T cell leukemia Jurkat cells. Jurkat cells (5×10^8cells) were suspended in 40 ml of the HDA buffer consisting of 15 mM potassium phosphate, pH 7.5, 5% glycerol and 0.2 mM EDTA. After homogenization, nuclei were collected by centrifugation (35,000 ×g, 10 min) and homogenized in 20 ml of the same buffer supplemented with 1 M (NH4)2SO4. The viscous homogenate was sonicated and clarified by centrifugation (35,000 ×g, 10 min), and the deacetylase was precipitated by raising the concentration of (NH4)2SO4 to 3.5 M. The precipitated protein was dissolved in 10 ml of the HDA buffer and dialyzed against 4 liters of the same buffer. The dialyzate was then loaded onto a DEAE-cellulose (Whatman DE52) column (25×85 mm) equilibrated with the same buffer and eluted with a linear gradient (0-0.6 M) of NaCl (300 ml). A single peak fraction of histone deacetylase activity was eluted between 0.3 and 0.4 M NaCl.
Preparation of [^3H] Acetyl Histones—To obtain [^3H]acetyl-labeled histones as the substrate for the histone deacetylase assay, 1×10^8 cells of Jurkat in 20 ml of RPMI-1640 medium supplemented with 10% FBS, penicillin (50 units/ml) and streptomycin (50 μg/ml) were incubated with 300 MBq [^3H] sodium acetate in the presence of […] sodium butyrate for 30 min in 5% CO2-95% air atmosphere at 37° C. in a 75 cm2 flask, harvested into a centrifuge tube (50 ml), collected by centrifugation at 1000 rpm for 10 min, and washed once with phosphate-buffered saline. The washed cells were suspended in 15 ml of ice-cold lysis buffer (10 mM Tris-HCl, 50 mM sodium bisulfite, 1% Triton X-100, 10 mM MgCl2, 8.6% sucrose, pH 6.5). After Dounce homogenization (30 stroke), the nuclei were collected by centrifugation at 1000 rpm for 10 min, washed three times with 15 ml of the lysis buffer, and once with 15 ml of ice-old washing buffer (10 mM Tris-HCl, 13 mM EDTA, pH 7.4) successively. The pellet was suspended in 6 ml of ice-cold water using a mixer, and […] of H2SO4 was added to the suspension to give a concentration of 0.4 N. After incubation at 4° C. for 1 hour, the suspension was centrifuged for 5 min at 15,000 rpm, and the supernatant was taken and mixed with 60 ml of acetone. After overnight incubation at −20° C., the coagulated material was collected by microcentrifugation, air-dried, and stored at […].
Assay for Histone Deacetylase Activity—For the standard assay, 10 μl of [^3H]acetyl-labeled histones was added to 90 μl of the enzyme fraction, and the mixture was incubated at 25° C. for 30 min. The reaction was stopped by addition of 10 μl of HCl. The released [^3H]acetic acid was extracted with 1 ml of ethyl acetate, and 0.9 ml of the solvent layer was taken into 10 ml of toluene scintillation solution for determination of radioactivity.

[2] = test system: murine lymphocyte blastogenesis induced by anti-CD3 antibody (splenic cells of Balb/c mice); assay: Lymphocyte blastogenesis test (MTT dye reduction); assay type: cell-based; settings: for Inhibition (%): 72 hours
Experimental: Effect on Lymphocyte Blastogenic Response
The lymphocyte blastogenesis test was performed in microtiter plates with each well containing 1×10^5 splenic cells of Balb/c mice in 0.1 ml RPMI-1640 medium supplemented with 10% fetal bovine serum (FBS), […] 2-mercaptoethanol, penicillin (100 units/ml) and streptomycin (100 μg/ml), to which anti-CD3 antibody (2C11) (1 μg/ml) was added. The cells were incubated at 37° C. in a humidified atmosphere of 5% CO2 for 72 hours. After the culture period, suppressive activities of the test samples in lymphocyte blastogenesis were quantified by an MTT [3-(4,5-dimethylthiazol-2-yl)-2,5-diphenyl-2H-tetrazolium bromide (MTT)] dye reduction assay.
WF27082 B was dissolved in methanol and further diluted in RPMI-1640 medium and added to the culture to give final concentrations of 50 ng/ml or less. FR235220 was dissolved in methanol and further diluted in RPMI-1640 medium and added to the culture to give final concentrations of 500 ng/ml or less. The results are shown in Table 2 and Table 3, respectively.

[3] = Solubility in solvents (physico-chemical properties); assay type: physicochemical; settings: solvents in which soluble

SMILES | Inhibition (%) ([1]; 1 ng/ml) | Inhibition (%) ([1]; 10 ng/ml) | Inhibition (%) ([1]; 100 ng/ml) | Inhibition (%) ([1]; 1000 ng/ml) | Effect on histone deacetylase activity (in words) [1] | Inhibition (%) ([2]; 4 ng/ml) | Inhibition (%) ([2]; 8 ng/ml) | Inhibition (%) ([2]; 16 ng/ml) | Inhibition (%) ([2]; 31 ng/ml) | Inhibition (%) ([2]; 63 ng/ml) | Inhibition (%) ([2]; 125 ng/ml) | Inhibition (%) ([2]; 250 ng/ml) | Inhibition (%) ([2]; 500 ng/ml) | Effect on murine lymphocyte blastogenesis (in words) ([2]; summary of Tables 2 and 3) | Solubility: Soluble [3]
CC(O)C(=O)CCCCCC1NC(=O)C2CCCN2C(=O)C(Cc2ccccc2)NC(=O)C(C)(C)NC1=O (centres unmarked) [FR235220] | −13.1 | 33.7 | 74.6 | 94.6 | potently inhibited | −23.4 | −1.3 | 45.1 | 106.0 | 125.3 | 127.2 | 126.0 | 126.0 | suppressed murine lymphocyte blastogenesis induced by anti-CD3 antibody in a dose-dependent manner | 
CCC1(C)NC(=O)C(CCCCCC(=O)C(C)O)NC(=O)C2CCCN2C(=O)C(Cc2ccccc2)NC1=O (centres unmarked) [WF27082 E] | 11.1 | 57.6 | 88.5 | 104.9 | potently inhibited |  |  |  |  |  |  |  |  |  | methanol, chloroform, ethyl acetate, dimethyl sulfoxide
CC1CC2C(=O)NC(CCCCCC(=O)C(C)O)C(=O)NC(C)(C)C(=O)NC(Cc3ccccc3)C(=O)N2C1 (centres unmarked) [WF27082 F] | 11.4 | 36.5 | 74.1 | 91.7 | potently inhibited |  |  |  |  |  |  |  |  |  | methanol, chloroform, ethyl acetate, dimethyl sulfoxide

— patent publication US6656905B1, “Cyclic tetrapeptide compound and use thereof” (Fujisawa Pharmaceutical Co., Ltd., priority 1998, dated 2003)
